Converted amounts (≈) assume the structure as drawn. Read-outs that look alike come from different tables or passages of the source.
Tests used:
[1] = test system: Staphylococcus aureus strain UAMS-1; test: Antimicrobial susceptibility testing (MIC, broth microdilution); format: cell-based; details: S. aureus UAMS-1, Mueller Hinton broth, 37° C.
Protocol: The RNase P inhibitors described herein were tested for antimicrobial activity toward Staphylococcus aureus strain UAMS-1. Individual wells of a 96-well microtiter plate were inoculated with ˜1×10^5 colony-forming units (CFU) of the indicated organism, containing two-fold increasing concentrations (from 0 to 256 μg mL^−1) of the indicated antibiotic or putative RnpA inhibitor, and incubated at 37° C. for 18 hours in Mueller Hinton broth. The MIC was defined as the lowest concentration of antibiotic in which there was no visible bacterial growth in the wells. Minimum bactericidal concentration testing was performed by enumerating the bacterial cells in each of the wells containing treatments at and above the MIC.

RnpA = target: T1, RnpA (Staphylococcus aureus, UniProt P0A0H5); test: RnpA mRNA degradation activity assay; format: biochemical
T1 sequence (P0A0H5 1-117): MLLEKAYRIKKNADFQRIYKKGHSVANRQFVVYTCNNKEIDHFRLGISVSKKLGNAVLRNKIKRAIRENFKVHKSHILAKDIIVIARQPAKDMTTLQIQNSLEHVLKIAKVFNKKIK
Protocol: The RNase P inhibitors described herein were tested for activity toward RnpA mRNA degradation activity. Either 1 μg of total S. aureus RNA or 1 pmol of in vitro synthesized spa mRNA was incubated with 20 pmol RnpA at 37° C. for 15 to 30 min in a reaction buffer (50 mM Tris-HCl pH 8.0, 2 mM NaCl, 2 mM MgCl2) in the absence or presence of the indicated compound. Reactions were stopped by adding an equal volume of 2×RNA loading dye (95% formamide, 0.025% SDS, 0.025% bromophenol blue, 0.025% xylene cyanol FF, 0.5 mM EDTA), run on a denaturing 1.0% agarose-0.66 M formaldehyde gel and stained with ethidium bromide. RNA substrates and corresponding degradation products were visualized using a FluorChem 5500 system (Alpha Innotech; San Leandro, Calif.). The inhibitory effects of the test compounds were measured using Image J densitometry software (National Institutes of Health; Bethesda, Md.) to quantify the signal intensity of the RNA band(s) in the negative control (RNA alone), positive control (RnpA+RNA+DMSO), and experimental samples (RnpA+RNA+test compound). The percent enzyme inhibition of test compounds was calculated using the following equation: Percent inhibition=[(experimental signal-positive control)/(negative control signal-positive control signal)]*100.

[2] = target: T2, S. aureus RNase P (RnpA+rnpB) (Staphylococcus aureus, UniProt P0A0H5); test: RNase P activity assay (precursor tRNA processing); format: biochemical; details: ptRNATyr processing, gel densitometry; read-out: RNase P IC50
T2 sequence (P0A0H5 1-117): T1 sequence (P0A0H5 1-117)
Protocol: The RNase P inhibitors described herein were tested for activity toward RNase P. S. aureus RNase P activity assays were performed in low salt buffer (50 mM Tris-HCl pH 8.0, 5 mM MgCl2) or in high salt buffer (50 mM Tris-HCl pH 8.0, 100 mM MgCl2, 800 mM NH4Cl). For all reactions, ptRNATyr, tRNATyr, or rnpB RNA species were first denatured by heating to 95° C. for 3 minutes, and then slowly cooling the mixtures to room temperature. RNase P was reconstituted by mixing an equal molar ratio of RnpB and RnpA for 15 min at 37° C. Precursor tRNA processing reactions (20 μL) were performed by mixing 1.25 pmol RNase P (RnpA+rnpB), RnpA, or rnpB with an equal volume of 2× low salt buffer or 2× high salt buffer and 10 pmol ptRNATyr. Mixtures were incubated for 15 min at 37° C. Reactions were stopped by adding 20 μL 2×RNA loading dye (95% formamide, 0.025% SDS, 0.025% bromophenol blue, 0.025% xylene cyanol FF, 0.5 mM EDTA), and 30 μL of each sample was electrophoresed in a 7 M urea/8% polyacrylamide gel and was then stained with ethidium bromide (0.5 μg/ml). Where indicated, reactions were repeated in the presence of the indicated amount of putative RnpA inhibitors or dimethyl sulfoxide (DMSO). A FluorChem 5500 imaging system was used to visualize the RNA, and the relative abundance of the mature tRNATyr band in the positive control (RNase P+DMSO) or in samples containing test compounds was measured using Image J densitometry software (NIH). The percent RNase P activity was then calculated using the following calculation: (test compound tRNATyr signal/positive control tRNATyr signal)*100.

[3] = Staphylococcus aureus, UAMS1, 18 h, read-out: MIC
[4] = RnpA mRNA degradation, gel densitometry, read-out: RnpA IC50

SMILES | MIC [1, 3] [µg/mL] | IC50 (RnpA; [4]) [µM] | IC50 [2] [µM] | IC50 (RnpA) [µM] | MIC ([1]; 18 hours) [µg/mL]
CC(C)c1ccc(OCC(=O)NNC(=O)c2ccco2)cc1 [MC-190034] | > 256 | > 500 | > 500 | – | –
CC(C)c1ccc(OCC(=O)NNC(=O)c2cccs2)cc1 [MC-190035] | > 256 | > 500 | > 500 | – | –
CC(C)c1ccc(OCC(=O)NNC(=O)c2ccsc2)cc1 [MC-190036] | > 256 | > 500 | > 500 | – | –
CC(C)c1ccc(OCC(=O)NNC(=O)Cc2ccco2)cc1 [MC-190038] | > 256 | > 500 | > 500 | – | –
CC(C)c1ccc(OCC(=O)NNC(=S)NC(=O)c2cnco2)cc1 [MC-190039] | 64 (≈ 177 µM) | – | – | > 500 | –
Cc1ccc(C(=O)NNC(=O)COc2ccc(C(C)C)cc2)o1 [MC-190041] | > 256 | 470 | 385 | – | –
Cc1ccoc1C(=O)NC(=S)NNC(=O)COc1ccc(C(C)C)cc1 [MC-190043] | 32 (≈ 85.2 µM) | 20 | 150 | – | –
CC(C)c1ccc(OCC(=O)NNC(=S)NC(=O)c2ccncc2)cc1 [MC-190050] | 128 (≈ 344 µM) | – | 150 | > 500 | –
CC(C)c1ccc(OCC(=O)NNC(=O)c2cc3ccccc3[nH]2)cc1 [MC-190051] | 128 (≈ 364 µM) | 45 | 2 | – | –
CC(C)c1ccc(OCC(=O)NNC(=O)c2cc3ccccc3n2C)cc1 [MC-190057] | > 256 | > 500 | 70 | – | –
COc1ccc2cc(C(=O)NNC(=O)COc3ccc(C(C)C)cc3)[nH]c2c1 [MC-190059] | > 256 | 150 | 80 | – | –
O=C(NC(=S)NNC(=O)c1ccccc1O)c1ccco1 [MC-190069] | – | > 500 | 470 | – | 64 (≈ 210 µM)
COc1ccc(OCC(=O)NNC(=S)NC(=O)c2ccco2)cc1 [MC-190070] | 64 (≈ 183 µM) | > 500 | > 500 | – | –
O=C(CCc1ccccc1)NNC(=S)NC(=O)c1ccco1 [MC-190080] | > 128 | – | – | – | –
CC(C)c1ccc(OCC(=O)NNC(=S)NC(=O)c2cnc3ccccc3c2)cc1 [MC-190082] | > 128 | – | – | – | –
CC(C)c1ccc(CCNc2c(NCc3ccco3)c(=O)c2=O)cc1 [MC-190083] | > 128 | – | – | – | –
CC(C)c1ccc(OCC(=O)NNC(=S)NC(=O)Cc2ccco2)cc1 [MC-190084] | 16 (≈ 42.6 µM) | – | – | – | –
Cc1ccc(CNc2c(NCCc3ccc(C(C)C)cc3)c(=O)c2=O)o1 [MC-190085] | > 128 | – | – | – | –
CC(C)c1ccc(CCNc2c(NCc3ccccn3)c(=O)c2=O)cc1 [MC-190086] | > 128 | – | – | – | –
CC(C)c1ccc(CCNc2c(NCc3nc4ccccc4[nH]3)c(=O)c2=O)cc1 [MC-190087] | > 128 | – | – | – | –
CC(C)c1ccc(CCNc2c(NCc3cc4ccccc4o3)c(=O)c2=O)cc1 [MC-190088] | > 128 | – | – | – | –
CC(C)c1ccc(CCNc2c(NCCc3ccco3)c(=O)c2=O)cc1 [MC-190090] | 256 (≈ 726 µM) | 50 | – | – | –
CC(C)c1ccc(CNc2c(NCc3ccco3)c(=O)c2=O)cc1 [MC-190091] | 128 (≈ 395 µM) | 25 | – | – | –
CC(C)c1ccc(CNc2c(NCCc3ccco3)c(=O)c2=O)cc1 [MC-190092] | 256 (≈ 756 µM) | 250 | 250 | – | –
CC(C)c1ccc(OCC(=O)NNC(=S)NC(=O)c2ccoc2)cc1 [MC-190098] | 16 (≈ 44.3 µM) | – | 150 | – | –

Reference: patent US10028931B2, “Synergistic compositions for treating microbial infections” (UNIVERSITY OF ROCHESTER, priority 2014, dated 2018)
